Compound in the assay: Clc1ccc2c(N3CCN(CCCN4CCN(c5ccnc6cc(Cl)ccc56)CC4)CC3)ccnc2c1 [piperaquine]
The procedure:
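Kenyan Plasmodium falciparum field isolates (2008-2021) were tested in a SYBR Green I growth-inhibition assay, either immediately ex vivo (fresh samples) or in vitro after culture adaptation. Cultures were at 1% parasitemia and 2% hematocrit, incubated with serial drug dilutions for 72 h at 37 °C (5% O2, 5% CO2), then read by fluorescence. IC50 was fitted by non-linear regression of the dose-response curve.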
As for KOM 16/07/0610, the IC50 growth inhibition stood at 0.00766 µg/mL.

For KDH 16/07/1823, the IC50 growth inhibition was 0.0202 µg/mL.

Turning to KOM 19/12/0150, the IC50 growth inhibition was determined as 0.00909 µg/mL.

KDH 21/05/0225: the IC50 growth inhibition was found to be 0.0071 µg/mL.

In the case of KDH 16/07/1830, the IC50 growth inhibition came to 0.00694 µg/mL.

Take MGT16/01/118: the IC50 growth inhibition is 0.00304 µg/mL.

KDH 14/03/1351: the IC50 growth inhibition is 0.0107 µg/mL.

In the case of KDH 15/06/1659, the IC50 growth inhibition worked out at 0.0165 µg/mL.

As to KDH 14/05/1397, the IC50 growth inhibition was 0.0137 µg/mL.

Take 601-239: the IC50 growth inhibition was 0.0156 µg/mL.

As for KCH 15/10/339, the IC50 growth inhibition turned out to be 0.00252 µg/mL.

On to KDH 21/02/0170, for which the IC50 growth inhibition was found to be 0.0523 µg/mL.

With 601-0157, the IC50 growth inhibition was found to be 0.0068 µg/mL.

Take KOM 19/12/151: the IC50 growth inhibition is 0.0169 µg/mL.

On to KOM 15/05/417, for which the IC50 growth inhibition amounted to 0.00145 µg/mL.

With KOM 13/07/009, the IC50 growth inhibition stood at 0.0226 µg/mL.

Consider MGT 14/03/0008, for which the IC50 growth inhibition is 0.0272 µg/mL.

As for KDH 21/02/0167, the IC50 growth inhibition was found to be 0.0233 µg/mL.

As for MGT 14/07/0033, the IC50 growth inhibition is 0.00335 µg/mL.

KCH 11/04/143: the IC50 growth inhibition was 0.0205 µg/mL.

Regarding KSI 18/09/0006, the IC50 growth inhibition stood at 0.00686 µg/mL.

Regarding KSI 16/07/906, the IC50 growth inhibition is 0.038 µg/mL.

Turning to KDH 21/05/0230, the IC50 growth inhibition worked out at 0.127 µg/mL.

For the test system KDH 15/04/1619, the IC50 growth inhibition was found to be 0.0223 µg/mL.

Turning to KOM 21/04/0219, the IC50 growth inhibition worked out at 0.0227 µg/mL.

The record behind these values is the supplement of paper PMC9673313.
